Data set [1] concerns EHV-4 405/76 reference strain. The data set is described as follows: RTCA. The format is cell-based, Equid herpesvirus 4. As to conditions: area under normalized Cell Index curves, 0-120 hpi, EHV-4-infected E. Derm cells.
Data set [2] has as its system EHV-4 405/76 reference strain. As to conditions: for CIT50 increase: RTCA, EHV-4-infected E. Derm cells.
The subject of data set [3] is EHV-4 405/76 reference strain. As to conditions: ratio of CC50 to EC50 obtained by qPCR.
Another data set relates to mice. As to conditions: mouse, in vivo; cited from earlier work.
The nature of data set [4]: Cytotoxicity by CellTiter-Glo. As to conditions: horse, E. Derm cells. A general note: ATP-based viability assays read luminescence as a measure of living cells.
Data set [5] can be described thus: Cytotoxicity by impedance using RTCA. As to conditions: horse, E. Derm cells.
The test system of data set [6] is EHV-4 405/76 reference strain. The data set is described as follows: microbe, parasite or virus in culture.
Data set [7] concerns EHV-4 405/76 reference strain. The data set is described as follows: microbe, parasite or virus in culture. This is another data set of the same source.

Results on one compound are retold here after PMC11125953 (Viruses, 2024).

Where two headings read alike, the source gives them in different places.

Turning to `Nc1ncn([C@H]2C[C@H](O)[C@@H](CO)O2)c(=O)n1` [Decitabine], the AUCn in data set [1] (0.4 µM) was determined as 73.51; in data set [1] (2 µM), 93.80; in data set [1] (10 µM), 120.54; in data set [1] (50 µM) it was 128.21. Also, the values for the CIT50 increase in data set [2] (0.78 µM) and in data set [2] (1.56 µM) were 25.66 ± 10.74 h and 30.13 ± 15.34 h, respectively. In data set [2] (ratio of CC50 to EC50 obtained by RTCA), the “Si (CC50/EC50, RTCA)” value is listed as above 43.10. For the same compound, the “SI (CC50 CellTiter-Glo/EC50 qPCR)” value in data set [3] is reported as above 178.57. In the data set with mice, the toxic concentration is given as around 25 µM. The CC50 in data set [4] and in data set [5] was above 50000 nM each time. The EC50 turned out to be 1.16 ± 0.31 µM in data set [6] (Equid alphaherpesvirus 4, read-out: RTCA EC50 (µM ± S.D)); 0.26 ± 0.07 µg/mL in data set [6] (Equid alphaherpesvirus 4, read-out: RTCA EC50 (µg/mL ± S.D)); 0.28 ± 0.05 µM in data set [7] (Equid alphaherpesvirus 4, read-out: qPCR EC50 (µM ± S.D)); 0.06 ± 0.01 µg/mL in data set [7] (Equid alphaherpesvirus 4, read-out: qPCR EC50 (µg/mL ± S.D)).
